Laboratory results published in ChEMBL document CHEMBL4507268 (2021).

Legend:
[1] = target: Serine/threonine-protein kinase B-raf (Homo sapiens) (UniProt P15056); conditions: Compound concentration 1000.0 nM
[2] = target: Cyclin-dependent kinase 4 (Homo sapiens) (UniProt P11802); conditions: Compound concentration 1000.0 nM
[3] = target: Cyclin-dependent kinase 5 (Homo sapiens) (UniProt Q00535); conditions: Compound concentration 1000.0 nM
[4] = test system: Epidermal growth factor receptor (Homo sapiens), P00533 [UNDEFINED MUTATION]; conditions: Compound concentration 1000.0 nM
Sequence of Epidermal growth factor receptor (Homo sapiens), P00533 [UNDEFINED MUTATION] (P00533 whole entry, looked up, change not shown): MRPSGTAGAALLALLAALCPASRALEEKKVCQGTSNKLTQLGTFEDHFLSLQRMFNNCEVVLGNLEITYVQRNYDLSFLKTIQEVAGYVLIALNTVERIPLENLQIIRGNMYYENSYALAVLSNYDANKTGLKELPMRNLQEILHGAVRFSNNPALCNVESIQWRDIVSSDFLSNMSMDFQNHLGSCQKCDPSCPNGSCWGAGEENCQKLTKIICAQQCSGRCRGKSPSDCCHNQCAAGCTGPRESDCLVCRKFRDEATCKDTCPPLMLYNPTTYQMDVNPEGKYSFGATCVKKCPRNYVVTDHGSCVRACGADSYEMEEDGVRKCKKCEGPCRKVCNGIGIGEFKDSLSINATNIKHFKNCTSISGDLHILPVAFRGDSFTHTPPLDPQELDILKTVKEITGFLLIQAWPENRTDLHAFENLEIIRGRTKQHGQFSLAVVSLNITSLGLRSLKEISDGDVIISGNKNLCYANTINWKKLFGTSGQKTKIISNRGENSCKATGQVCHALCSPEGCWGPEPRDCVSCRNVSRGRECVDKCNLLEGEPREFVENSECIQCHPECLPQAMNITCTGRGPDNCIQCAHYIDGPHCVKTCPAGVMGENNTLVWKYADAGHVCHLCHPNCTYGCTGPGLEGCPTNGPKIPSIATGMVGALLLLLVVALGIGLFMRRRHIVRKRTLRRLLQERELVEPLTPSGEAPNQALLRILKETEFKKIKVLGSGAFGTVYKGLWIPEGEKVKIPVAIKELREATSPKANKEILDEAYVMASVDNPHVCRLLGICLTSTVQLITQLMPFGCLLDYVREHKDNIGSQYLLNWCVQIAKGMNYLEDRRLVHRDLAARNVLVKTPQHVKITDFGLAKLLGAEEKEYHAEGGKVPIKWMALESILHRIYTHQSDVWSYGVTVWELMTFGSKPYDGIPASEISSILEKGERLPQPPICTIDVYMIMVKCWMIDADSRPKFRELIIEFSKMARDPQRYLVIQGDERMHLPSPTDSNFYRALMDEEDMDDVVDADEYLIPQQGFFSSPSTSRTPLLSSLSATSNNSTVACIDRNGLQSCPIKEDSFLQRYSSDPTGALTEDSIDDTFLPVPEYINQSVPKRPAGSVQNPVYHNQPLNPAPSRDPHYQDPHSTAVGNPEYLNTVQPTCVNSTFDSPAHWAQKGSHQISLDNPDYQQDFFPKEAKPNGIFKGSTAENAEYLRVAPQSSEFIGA

[5] = target: T1, Ephrin type-B receptor 1 (Homo sapiens) (UniProt P54762); conditions: Compound concentration 1000.0 nM
T1 sequence (whole entry): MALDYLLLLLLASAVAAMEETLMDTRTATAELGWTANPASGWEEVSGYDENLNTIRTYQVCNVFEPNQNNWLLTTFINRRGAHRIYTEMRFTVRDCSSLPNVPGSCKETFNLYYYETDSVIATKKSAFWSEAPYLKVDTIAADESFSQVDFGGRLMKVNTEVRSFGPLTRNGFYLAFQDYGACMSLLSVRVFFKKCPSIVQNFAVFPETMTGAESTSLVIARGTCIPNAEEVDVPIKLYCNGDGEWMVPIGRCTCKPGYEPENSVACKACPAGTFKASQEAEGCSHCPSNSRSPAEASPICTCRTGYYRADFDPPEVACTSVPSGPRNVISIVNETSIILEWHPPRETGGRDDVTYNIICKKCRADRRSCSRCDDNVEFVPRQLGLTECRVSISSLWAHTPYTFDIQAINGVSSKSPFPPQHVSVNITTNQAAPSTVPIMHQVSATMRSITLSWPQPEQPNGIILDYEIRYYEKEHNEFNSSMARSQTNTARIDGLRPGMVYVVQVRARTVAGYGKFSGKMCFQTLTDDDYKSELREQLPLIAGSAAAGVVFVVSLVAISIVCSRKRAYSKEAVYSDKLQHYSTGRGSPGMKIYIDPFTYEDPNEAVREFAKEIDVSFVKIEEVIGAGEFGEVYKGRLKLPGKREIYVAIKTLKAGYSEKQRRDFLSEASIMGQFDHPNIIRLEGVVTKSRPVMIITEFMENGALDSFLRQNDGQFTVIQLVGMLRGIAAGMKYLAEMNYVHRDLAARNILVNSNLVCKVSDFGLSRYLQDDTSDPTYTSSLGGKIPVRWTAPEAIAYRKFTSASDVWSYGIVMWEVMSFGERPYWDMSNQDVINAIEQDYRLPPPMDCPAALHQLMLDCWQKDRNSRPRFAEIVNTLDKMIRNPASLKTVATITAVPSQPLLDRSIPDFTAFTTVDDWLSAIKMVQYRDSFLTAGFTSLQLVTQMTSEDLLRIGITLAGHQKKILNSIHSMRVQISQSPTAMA

[6] = target: Fibroblast growth factor receptor 2 (Homo sapiens) (UniProt P21802); conditions: Compound concentration 1000.0 nM
Sequence of Fibroblast growth factor receptor 2 (Homo sapiens) (P21802 22-821 limits assumed): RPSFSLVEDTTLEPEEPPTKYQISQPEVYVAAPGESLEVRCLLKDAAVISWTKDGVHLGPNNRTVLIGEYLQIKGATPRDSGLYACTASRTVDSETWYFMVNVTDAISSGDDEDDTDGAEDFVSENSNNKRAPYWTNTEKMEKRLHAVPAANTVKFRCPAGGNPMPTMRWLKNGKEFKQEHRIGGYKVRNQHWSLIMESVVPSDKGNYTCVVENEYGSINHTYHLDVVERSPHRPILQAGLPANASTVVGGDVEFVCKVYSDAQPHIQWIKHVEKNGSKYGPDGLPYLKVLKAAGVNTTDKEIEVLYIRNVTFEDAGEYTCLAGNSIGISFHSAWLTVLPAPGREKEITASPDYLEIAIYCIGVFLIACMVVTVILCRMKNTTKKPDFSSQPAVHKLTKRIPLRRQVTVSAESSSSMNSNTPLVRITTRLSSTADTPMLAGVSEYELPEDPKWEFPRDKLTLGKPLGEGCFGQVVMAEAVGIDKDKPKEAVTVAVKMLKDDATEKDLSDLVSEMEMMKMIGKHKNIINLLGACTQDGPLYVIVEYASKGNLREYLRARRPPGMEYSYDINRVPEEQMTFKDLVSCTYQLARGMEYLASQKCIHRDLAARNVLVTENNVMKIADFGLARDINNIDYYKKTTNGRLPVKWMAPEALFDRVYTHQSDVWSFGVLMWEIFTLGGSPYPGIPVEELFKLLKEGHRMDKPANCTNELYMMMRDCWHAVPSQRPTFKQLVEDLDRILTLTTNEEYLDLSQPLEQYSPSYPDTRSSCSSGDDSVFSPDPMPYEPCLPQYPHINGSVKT

[7] = target: T2, Tyrosine-protein kinase ITK/TSK (Homo sapiens) (UniProt Q08881); conditions: Compound concentration 1000.0 nM
T2 sequence (whole entry): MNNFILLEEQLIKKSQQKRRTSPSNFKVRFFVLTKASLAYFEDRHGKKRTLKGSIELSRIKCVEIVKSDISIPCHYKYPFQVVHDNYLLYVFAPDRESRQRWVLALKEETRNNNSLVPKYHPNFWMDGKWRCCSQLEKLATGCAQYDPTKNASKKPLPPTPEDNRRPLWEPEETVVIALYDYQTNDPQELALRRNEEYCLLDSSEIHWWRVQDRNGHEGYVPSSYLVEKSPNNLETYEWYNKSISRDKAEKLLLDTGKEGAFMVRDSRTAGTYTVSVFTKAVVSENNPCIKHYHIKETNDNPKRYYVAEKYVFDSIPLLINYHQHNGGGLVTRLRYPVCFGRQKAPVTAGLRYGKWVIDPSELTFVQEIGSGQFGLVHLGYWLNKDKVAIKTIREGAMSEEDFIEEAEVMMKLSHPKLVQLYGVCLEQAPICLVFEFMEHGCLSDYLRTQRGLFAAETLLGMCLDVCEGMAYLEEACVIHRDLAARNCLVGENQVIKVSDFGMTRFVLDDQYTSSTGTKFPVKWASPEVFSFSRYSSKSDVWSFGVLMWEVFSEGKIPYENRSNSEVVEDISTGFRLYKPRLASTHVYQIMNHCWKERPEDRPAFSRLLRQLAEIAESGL

[8] = test system: Mast/stem cell growth factor receptor Kit (Homo sapiens), P10721 [D816H]; conditions: Compound concentration 1000.0 nM
Sequence of Mast/stem cell growth factor receptor Kit (Homo sapiens), P10721 [D816H] (P10721 whole entry D816H): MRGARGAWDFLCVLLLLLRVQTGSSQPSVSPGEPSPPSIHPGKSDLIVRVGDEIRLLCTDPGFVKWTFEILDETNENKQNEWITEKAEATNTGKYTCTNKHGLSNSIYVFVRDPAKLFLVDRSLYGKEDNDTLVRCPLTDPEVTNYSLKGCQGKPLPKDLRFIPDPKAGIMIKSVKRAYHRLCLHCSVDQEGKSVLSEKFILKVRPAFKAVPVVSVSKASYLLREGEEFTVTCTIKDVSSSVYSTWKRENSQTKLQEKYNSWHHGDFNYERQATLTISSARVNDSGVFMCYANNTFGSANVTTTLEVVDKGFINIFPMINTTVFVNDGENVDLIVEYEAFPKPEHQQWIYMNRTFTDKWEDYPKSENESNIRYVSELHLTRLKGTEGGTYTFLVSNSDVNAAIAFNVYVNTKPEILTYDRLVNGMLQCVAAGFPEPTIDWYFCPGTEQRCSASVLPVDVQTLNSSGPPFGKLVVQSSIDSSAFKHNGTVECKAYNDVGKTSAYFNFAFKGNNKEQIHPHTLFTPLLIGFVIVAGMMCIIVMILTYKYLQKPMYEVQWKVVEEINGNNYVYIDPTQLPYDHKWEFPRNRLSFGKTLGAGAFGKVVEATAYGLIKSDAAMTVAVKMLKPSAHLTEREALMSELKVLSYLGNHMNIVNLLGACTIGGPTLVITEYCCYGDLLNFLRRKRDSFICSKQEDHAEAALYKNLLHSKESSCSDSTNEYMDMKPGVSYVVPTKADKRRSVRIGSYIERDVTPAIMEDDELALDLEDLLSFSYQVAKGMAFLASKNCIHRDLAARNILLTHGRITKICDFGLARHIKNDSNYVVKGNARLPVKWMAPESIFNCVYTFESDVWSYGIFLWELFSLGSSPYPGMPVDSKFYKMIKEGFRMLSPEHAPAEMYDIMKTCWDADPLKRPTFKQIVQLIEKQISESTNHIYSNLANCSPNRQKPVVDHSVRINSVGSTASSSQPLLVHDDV

[9] = target: T3, cGMP-dependent protein kinase 1 (Homo sapiens) (UniProt Q13976); conditions: Compound concentration 1000.0 nM
T3 sequence (whole entry): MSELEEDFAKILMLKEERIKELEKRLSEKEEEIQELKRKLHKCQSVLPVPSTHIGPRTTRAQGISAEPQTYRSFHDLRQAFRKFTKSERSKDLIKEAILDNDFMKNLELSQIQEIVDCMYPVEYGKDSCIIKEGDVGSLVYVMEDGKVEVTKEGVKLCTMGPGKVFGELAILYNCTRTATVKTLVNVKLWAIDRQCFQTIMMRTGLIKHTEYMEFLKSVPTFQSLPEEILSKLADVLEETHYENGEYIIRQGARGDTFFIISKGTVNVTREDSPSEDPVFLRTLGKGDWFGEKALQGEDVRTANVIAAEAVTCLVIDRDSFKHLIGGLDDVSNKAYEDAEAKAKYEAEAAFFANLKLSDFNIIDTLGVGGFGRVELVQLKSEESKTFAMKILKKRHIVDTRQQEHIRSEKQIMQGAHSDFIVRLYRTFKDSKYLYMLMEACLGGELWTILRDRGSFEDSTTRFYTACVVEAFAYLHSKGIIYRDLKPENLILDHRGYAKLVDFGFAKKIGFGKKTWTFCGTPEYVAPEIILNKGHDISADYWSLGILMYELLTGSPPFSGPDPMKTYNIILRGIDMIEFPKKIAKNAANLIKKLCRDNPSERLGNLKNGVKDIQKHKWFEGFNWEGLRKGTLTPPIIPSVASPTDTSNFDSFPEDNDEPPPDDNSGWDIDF

[10] = target: Muscarinic acetylcholine receptor M3 (Homo sapiens) (UniProt P20309); conditions: Compound concentration 10.0 uM
Sequence of Muscarinic acetylcholine receptor M3 (Homo sapiens) (P20309 whole entry, looked up): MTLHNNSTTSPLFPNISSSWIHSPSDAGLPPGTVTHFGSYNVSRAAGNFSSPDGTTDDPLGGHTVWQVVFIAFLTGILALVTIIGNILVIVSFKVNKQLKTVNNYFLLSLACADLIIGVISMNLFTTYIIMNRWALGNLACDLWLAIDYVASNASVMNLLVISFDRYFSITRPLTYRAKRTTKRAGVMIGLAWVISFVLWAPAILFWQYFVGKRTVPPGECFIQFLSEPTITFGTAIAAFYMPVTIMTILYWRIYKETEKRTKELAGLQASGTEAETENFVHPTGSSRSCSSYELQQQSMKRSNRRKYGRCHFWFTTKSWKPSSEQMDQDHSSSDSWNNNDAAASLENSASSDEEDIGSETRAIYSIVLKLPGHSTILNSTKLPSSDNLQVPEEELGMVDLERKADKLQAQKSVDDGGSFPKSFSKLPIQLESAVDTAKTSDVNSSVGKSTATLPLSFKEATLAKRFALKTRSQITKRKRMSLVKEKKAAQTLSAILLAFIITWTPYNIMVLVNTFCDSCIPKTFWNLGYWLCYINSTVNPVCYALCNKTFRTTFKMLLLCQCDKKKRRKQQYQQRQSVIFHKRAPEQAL

Sequence of Cyclin-dependent kinase 4 (Homo sapiens) (P11802 whole entry): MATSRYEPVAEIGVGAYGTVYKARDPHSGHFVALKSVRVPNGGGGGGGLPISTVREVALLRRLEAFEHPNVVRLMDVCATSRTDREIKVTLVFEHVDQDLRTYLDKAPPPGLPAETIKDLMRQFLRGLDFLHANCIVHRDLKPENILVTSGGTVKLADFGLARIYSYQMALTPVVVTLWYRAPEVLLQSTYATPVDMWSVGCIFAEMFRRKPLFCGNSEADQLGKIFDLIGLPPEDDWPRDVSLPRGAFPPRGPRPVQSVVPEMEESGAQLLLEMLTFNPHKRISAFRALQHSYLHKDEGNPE
Sequence of Serine/threonine-protein kinase B-raf (Homo sapiens) (P15056 whole entry): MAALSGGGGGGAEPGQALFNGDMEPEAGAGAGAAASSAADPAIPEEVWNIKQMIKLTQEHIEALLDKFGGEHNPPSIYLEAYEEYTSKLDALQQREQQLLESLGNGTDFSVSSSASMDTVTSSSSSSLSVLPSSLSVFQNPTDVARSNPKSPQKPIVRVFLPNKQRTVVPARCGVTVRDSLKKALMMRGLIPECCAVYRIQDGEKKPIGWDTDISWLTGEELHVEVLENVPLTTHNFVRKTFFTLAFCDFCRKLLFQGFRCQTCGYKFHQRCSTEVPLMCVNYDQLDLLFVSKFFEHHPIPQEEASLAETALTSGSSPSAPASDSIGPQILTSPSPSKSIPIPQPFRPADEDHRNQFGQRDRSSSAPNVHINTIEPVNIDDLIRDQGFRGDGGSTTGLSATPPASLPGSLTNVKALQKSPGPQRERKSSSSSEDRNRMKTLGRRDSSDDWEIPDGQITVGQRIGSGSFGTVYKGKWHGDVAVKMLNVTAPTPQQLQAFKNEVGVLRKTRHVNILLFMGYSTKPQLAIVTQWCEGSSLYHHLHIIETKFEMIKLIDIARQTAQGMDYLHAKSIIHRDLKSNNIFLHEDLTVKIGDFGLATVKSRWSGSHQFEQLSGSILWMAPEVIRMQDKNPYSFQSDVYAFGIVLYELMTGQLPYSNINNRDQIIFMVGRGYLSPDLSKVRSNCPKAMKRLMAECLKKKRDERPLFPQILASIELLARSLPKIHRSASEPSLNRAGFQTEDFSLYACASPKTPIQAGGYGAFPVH
Sequence of Cyclin-dependent kinase 5 (Homo sapiens) (Q00535 whole entry, looked up): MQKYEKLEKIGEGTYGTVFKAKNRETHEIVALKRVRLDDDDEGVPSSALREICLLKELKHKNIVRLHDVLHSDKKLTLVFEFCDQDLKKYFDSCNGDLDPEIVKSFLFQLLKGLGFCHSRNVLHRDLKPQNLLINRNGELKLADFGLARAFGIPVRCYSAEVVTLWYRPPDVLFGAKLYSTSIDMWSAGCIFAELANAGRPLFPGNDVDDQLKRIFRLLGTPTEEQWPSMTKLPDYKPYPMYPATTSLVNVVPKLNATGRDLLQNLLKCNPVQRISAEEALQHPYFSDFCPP

Cc1nc(C2CCN(C(=O)c3ccc(OC(F)(F)F)cc3N)CC2)c2ncc(N3CCN(C)CC3)cc2n1 [BAY-693]
inactive: residual activity [1] 100% | residual activity [2] 100% | residual activity [3] 88% | residual activity [4] 91% | residual activity [5] 95% | residual activity [6] 100% | residual activity [7] 89% | residual activity [8] 100% | residual activity [9] 100% | inhibition [10] 18.6%

CN1CCN(c2cnc3c(C4CCN(C(=O)c5ccc(OC(F)(F)F)cc5N)CC4)ncnc3c2)CC1 [BAY-885]
inactive: residual activity [1] 100% | residual activity [2] 100% | residual activity [3] 87% | residual activity [4] 77% | residual activity [5] 100% | residual activity [6] 100% | residual activity [7] 100% | residual activity [8] 100% | residual activity [9] 83% | inhibition [10] 27.1%
